Data reported in publication PMC11033320, “Activation of p53 signaling and regression of breast and prostate carcinoma cells by spirooxindole-benzimidazole small molecules” (Frontiers in Pharmacology, 2024).

How the values were obtained:
NCI/ADR-RES = experiment: NCI anticancer screening, Ovarian Cancer NCI/ADR-RES; format: cell-based; details: Homo sapiens, read-out: % Growth Inhibition (GI %)
From the text: (§1) The compound has been processed according to standard method NCI-60 Human Tumor Cell Lines Screen for organic compound at development therapeutic program (DTP). Requests for access to this national resource can be submitted online at: […]

HCT-116 = experiment: NCI anticancer screening, Colon Cancer HCT-116; format: cell-based; details: Homo sapiens; HCT-116, 10 μM; read-out: % Growth Inhibition (GI %)
From the text: as §1

SK-MEL-28 = experiment: NCI anticancer screening, Melanoma SK-MEL-28; format: cell-based; details: Homo sapiens; SK-MEL-28, 10 μM; read-out: % Growth Inhibition (GI %)
From the text: as §1

SF-539 = experiment: NCI anticancer screening, CNS Cancer SF-539; format: cell-based; details: Homo sapiens; SF-539, 10 μM; read-out: % Growth Inhibition (GI %)
From the text: as §1

CAKI-1 = experiment: NCI anticancer screening, Renal Cancer CAKI-1; format: cell-based; details: Homo sapiens; CAKI-1, 10 μM; read-out: % Growth Inhibition (GI %)
From the text: as §1

SNB-19 = experiment: NCI anticancer screening, CNS Cancer SNB-19; format: cell-based; details: Homo sapiens; SNB-19, 10 μM; read-out: % Growth Inhibition (GI %)
From the text: as §1

RXF 393 = experiment: NCI anticancer screening, Renal Cancer RXF 393; format: cell-based; details: Homo sapiens; RXF 393, 10 μM; read-out: % Growth Inhibition (GI %)
From the text: as §1

MOLT-4 = experiment: NCI anticancer screening, Leukemia MOLT-4; format: cell-based; details: Homo sapiens; MOLT-4, 10 μM; read-out: % Growth Inhibition (GI %)
From the text: as §1

SK-MEL-5 = experiment: NCI anticancer screening, Melanoma SK-MEL-5; format: cell-based; details: Homo sapiens; SK-MEL-5, 10 μM; read-out: % Growth Inhibition (GI %)
From the text: as §1

SW-620 = experiment: NCI anticancer screening, Colon Cancer SW-620; format: cell-based; details: Homo sapiens; SW-620, 10 μM; read-out: % Growth Inhibition (GI %)
From the text: as §1

ACHN = experiment: NCI anticancer screening, Renal Cancer ACHN; format: cell-based; details: Homo sapiens, read-out: % Growth Inhibition (GI %)
From the text: as §1

U251 = experiment: NCI anticancer screening, CNS Cancer U251; format: cell-based; details: Homo sapiens, U-251; U251, 10 μM; read-out: % Growth Inhibition (GI %)
From the text: as §1

SN12C = experiment: NCI anticancer screening, Renal Cancer SN12C; format: cell-based; details: Homo sapiens, read-out: % Growth Inhibition (GI %)
From the text: as §1

DU-145 = experiment: NCI anticancer screening, DU-145; format: cell-based; details: Homo sapiens; DU-145, 10 μM; read-out: % Growth Inhibition (GI %)
From the text: as §1

EKVX = experiment: NCI anticancer screening, Non-Small Cell Lung Cancer EKVX; format: cell-based; details: Homo sapiens, read-out: % Growth Inhibition (GI %)
From the text: as §1

OVCAR-4 = experiment: NCI anticancer screening, Ovarian Cancer OVCAR-4; format: cell-based; details: Homo sapiens; OVCAR-4, 10 μM; read-out: % Growth Inhibition (GI %)
From the text: as §1

SK-MEL-2 = experiment: NCI anticancer screening, Melanoma SK-MEL-2; format: cell-based; details: Homo sapiens; SK-MEL-2, 10 μM; read-out: % Growth Inhibition (GI %)
From the text: as §1

MDA-MB 231 cells = details: for inhibition: 5 µM
CCRF-CEM = experiment: NCI anticancer screening, Leukemia CCRF-CEM; format: cell-based; details: Homo sapiens, read-out: % Growth Inhibition (GI %)
From the text: as §1

TK-10 = experiment: NCI anticancer screening, Renal Cancer TK-10; format: cell-based; details: Homo sapiens; TK-10, 10 μM; read-out: % Growth Inhibition (GI %)
From the text: as §1

LOX IMVI = experiment: NCI anticancer screening, Melanoma LOX IMVI; format: cell-based; details: Homo sapiens, read-out: % Growth Inhibition (GI %)
From the text: as §1

HOP-62 = experiment: NCI anticancer screening, Non-Small Cell Lung Cancer HOP-62; format: cell-based; details: Homo sapiens; HOP-62, 10 μM; read-out: % Growth Inhibition (GI %)
From the text: as §1

SNB-75 = experiment: NCI anticancer screening, CNS Cancer SNB-75; format: cell-based; details: Homo sapiens; SNB-75, 10 μM; read-out: % Growth Inhibition (GI %)
From the text: as §1

SR = experiment: NCI anticancer screening, Leukemia SR; format: cell-based; details: Homo sapiens, read-out: % Growth Inhibition (GI %)
From the text: as §1

HCC-2998 = experiment: NCI anticancer screening, Colon Cancer HCC-2998; format: cell-based; details: Homo sapiens; HCC-2998, 10 μM; read-out: % Growth Inhibition (GI %)
From the text: as §1

SF-295 = experiment: NCI anticancer screening, CNS Cancer SF-295; format: cell-based; details: Homo sapiens; SF-295, 10 μM; read-out: % Growth Inhibition (GI %)
From the text: as §1

K-562 = experiment: NCI anticancer screening, Leukemia K-562; format: cell-based; details: Homo sapiens, K562; K-562, 10 μM; read-out: % Growth Inhibition (GI %)
From the text: as §1

OVCAR-8 = experiment: NCI anticancer screening, Ovarian Cancer OVCAR-8; format: cell-based; details: Homo sapiens; OVCAR-8, 10 μM; read-out: % Growth Inhibition (GI %)
From the text: as §1

NCI-H522 = experiment: NCI anticancer screening, Non-Small Cell Lung Cancer NCI-H522; format: cell-based; details: Homo sapiens; NCI-H522, 10 μM; read-out: % Growth Inhibition (GI %)
From the text: as §1

HS 578T = experiment: NCI anticancer screening, Breast Cancer HS 578T; format: cell-based; details: Homo sapiens, read-out: % Growth Inhibition (GI %)
From the text: as §1

HL-60(TB) = experiment: NCI anticancer screening, Leukemia HL-60(TB); format: cell-based; details: Homo sapiens, read-out: % Growth Inhibition (GI %)
From the text: as §1

786-0 = experiment: NCI anticancer screening, Renal Cancer 786-0; format: cell-based; details: Homo sapiens; 786-0, 10 μM; read-out: % Growth Inhibition (GI %)
From the text: as §1

A549/ATCC = experiment: NCI anticancer screening, Non-Small Cell Lung Cancer A549/ATCC; format: cell-based; details: Homo sapiens, read-out: % Growth Inhibition (GI %)
From the text: as §1

HOP-92 = experiment: NCI anticancer screening, Non-Small Cell Lung Cancer HOP-92; format: cell-based; details: Homo sapiens; HOP-92, 10 μM; read-out: % Growth Inhibition (GI %)
From the text: as §1

MALME-3M = experiment: NCI anticancer screening, Melanoma MALME-3M; format: cell-based; details: Homo sapiens, read-out: % Growth Inhibition (GI %)
From the text: as §1

NCI-H322M = experiment: NCI anticancer screening, Non-Small Cell Lung Cancer NCI-H322M; format: cell-based; details: Homo sapiens, read-out: % Growth Inhibition (GI %)
From the text: as §1

T-47D = experiment: NCI anticancer screening, Breast Cancer T-47D; format: cell-based; details: Homo sapiens, T47D, read-out: % Growth Inhibition (GI %)
From the text: as §1

PC-3 cells = experiment: MTT assay anticancer activity, PC-3; format: cell-based; details: Homo sapiens, PC-3, 5 µM, mean ± SEM, read-out: growth inhibition percentage of PC-3
From the text: MTT method was done as described above.

SMILES	inhibition at 10 µM (NCI/ADR-RES) [%]	inhibition at 10 µM (HCT-116) [%]	inhibition at 10 µM (SK-MEL-28) [%]	inhibition at 10 µM (SF-539) [%]	inhibition at 10 µM (CAKI-1) [%]	inhibition at 10 µM (SNB-19) [%]	inhibition at 10 µM (RXF 393) [%]	inhibition at 10 µM (MOLT-4) [%]	inhibition at 10 µM (SK-MEL-5) [%]	inhibition at 10 µM (SW-620) [%]	inhibition at 10 µM (ACHN) [%]	inhibition at 10 µM (U251) [%]	inhibition at 10 µM (SN12C) [%]	inhibition at 10 µM (DU-145) [%]	inhibition at 10 µM (EKVX) [%]	inhibition at 10 µM (OVCAR-4) [%]	inhibition at 10 µM (SK-MEL-2) [%]	IC50 (MDA-MB 231 cells) [µM]	inhibition (MDA-MB 231 cells) [%]	inhibition at 10 µM (CCRF-CEM) [%]	other results
O=C(c1nc2ccccc2[nH]1)[C@H]1[C@H](c2ccc(Br)cc2)C2CSCN2[C@]12C(=O)Nc1ccccc12 (stereo partly drawn) [Compound 6l, (3S,6′R)-6'-(1H-Benzo [d]imidazole-2-carbonyl)-7'-(4-bromophenyl)-3′,6′,7′,7a′-tetrahydro-1′H-spiro [indoline-3.5′-pyrrolo [1,2-c]thiazol]-2-one]	83.2	59.2	84.8	82.4	60.3	67	62.1	56.3	84.8	80.7	74.6	75.8	82.8	97.1	68.8	70.8	107	4.51 ± 0.203	53.59 ± 0.109	88.2	melting point: 172 to 174 °C; inhibition at 10 µM (TK-10): 145%; inhibition at 10 µM (LOX IMVI): 73.2%; inhibition at 10 µM (HOP-62): 88.7%; inhibition at 10 µM (SNB-75): 68%; inhibition at 10 µM (SR): 54.1%; inhibition at 10 µM (HCC-2998): 79.4%; inhibition at 10 µM (SF-295): 63.9%; inhibition at 10 µM (K-562): 74.5%; inhibition at 10 µM (OVCAR-8): 89.8%; inhibition at 10 µM (NCI-H522): 91.2%; inhibition at 10 µM (HS 578T): 67.6%; inhibition at 10 µM (HL-60(TB)): 89.9%; inhibition at 10 µM (786-0): 91.5%; inhibition at 10 µM (A549/ATCC): 73%; inhibition at 10 µM (HOP-92): 96.9%; inhibition at 10 µM (MALME-3M): 78.5%; inhibition at 10 µM (NCI-H322M): 89.9%; inhibition at 10 µM (T-47D): 54.7%; inhibition at 5 µM (PC-3 cells): 55.1 ± 1.98%
O=C(c1nc2ccccc2[nH]1)[C@H]1[C@H](c2ccccc2)C2CSCN2[C@]12C(=O)Nc1ccccc12 (mixture of isomers) [Compound 6a, (3S,6′R)-6'-(1H-benzo [d]imidazole-2-carbonyl)-7′-phenyl-3′,6′,7′,7a′-tetrahydro-1′H-spiro [indoline-3.5′-pyrrolo [1,2-c]thiazol]-2-one]	105	106	103	95.1	86	97	101	100	92.7	97.8	99.5	93.9	106	115	106	108	101	2.97 ± 0.047	55.5 ± 0.761	111	inhibition at 10 µM (TK-10): 110%; inhibition at 10 µM (LOX IMVI): 98.7%; inhibition at 10 µM (HOP-62): 99.3%; inhibition at 10 µM (SNB-75): 79.8%; inhibition at 10 µM (SR): 94.2%; inhibition at 10 µM (HCC-2998): 109%; inhibition at 10 µM (SF-295): 104%; inhibition at 10 µM (K-562): 105%; inhibition at 10 µM (OVCAR-8): 96.1%; inhibition at 10 µM (NCI-H522): 93.7%; inhibition at 10 µM (HS 578T): 103%; inhibition at 10 µM (HL-60(TB)): 101%; inhibition at 10 µM (786-0): 102%; inhibition at 10 µM (A549/ATCC): 98.7%; inhibition at 10 µM (HOP-92): 95.5%; inhibition at 10 µM (MALME-3M): 101%; inhibition at 10 µM (NCI-H322M): 98.1%; inhibition at 10 µM (T-47D): 88%; inhibition at 5 µM (PC-3 cells): > 50%
Cc1ccc([C@@H]2C3CSCN3[C@]3(C(=O)Nc4ccccc43)[C@H]2C(=O)c2nc3ccccc3[nH]2)cc1 (mixture of isomers) [Compound 6d, (3S,6′R)-6'-(1H-Benzo [d]imidazole-2-carbonyl)-7'-(p-tolyl)-3′,6′,7′,7a′-tetrahydro-1′H-spiro [indoline-3.5′-pyrrolo [1,2-c]thiazol]-2-one]	86.2	74.5	98.8	81.9	54.5	80.3	57.1	78.5	83.3	92	88.9	73.3	85.2	106	71.6	62.4	93.6	4.3 ± 0.137	51.7 ± 1.3	89.5	inhibition at 10 µM (TK-10): 94.5%; inhibition at 10 µM (LOX IMVI): 82%; inhibition at 10 µM (HOP-62): 105%; inhibition at 10 µM (SNB-75): 61.4%; inhibition at 10 µM (SR): 102%; inhibition at 10 µM (HCC-2998): 94.9%; inhibition at 10 µM (SF-295): 59%; inhibition at 10 µM (K-562): 81.6%; inhibition at 10 µM (OVCAR-8): 95.9%; inhibition at 10 µM (NCI-H522): 84.3%; inhibition at 10 µM (HS 578T): 78.6%; inhibition at 10 µM (HL-60(TB)): 96.2%; inhibition at 10 µM (786-0): 86.1%; inhibition at 10 µM (A549/ATCC): 75.4%; inhibition at 10 µM (HOP-92): 87%; inhibition at 10 µM (MALME-3M): 85.3%; inhibition at 10 µM (NCI-H322M): 83.1%; inhibition at 10 µM (T-47D): 68.8%; inhibition at 5 µM (PC-3 cells): > 50%
